Assay results from the METLIN SMRT retention time set (Domingo-Almenara et al. 2019).

Experiment: gradient 5% acetonitrile 3 min, to 50% in 2 min, to 85% in 15 min, held 3 min, 100 µL/min
Details: column: Zorbax Extend-C18 2.1 x 50 mm; eluents: water / acetonitrile, 0.1% formic acid
Method in brief: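 Using water and acetonitrile that each contained 0.1% formic acid, mixtures of ~100 pure standards were separated at 100 μL/min on a Zorbax Extend-C18 column (2.1 × 50 mm, 1.8 μm). The HPLC fed a quadrupole time-of-flight mass spectrometer working in positive and negative ionization mode, with dead and dwell volumes of 40 μL and 900 μL. Data were acquired over 3 months. Retention time was read from computationally picked adduct peaks after manual inspection of each.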

Structure (SMILES) | RP-LC retention time [s]
Cc1ccc(C(=O)Nc2nc(-c3ccc4c(c3)NC(=O)C(C)O4)c(C)s2)cc1 (stereo unspecified) | 1010
COCCCNC(=O)C1c2ccccc2CCN1C(C)=O (stereo unspecified) | 641
CCN1CCN(CCCNC(=O)C2CCN(Cc3cn(C)c4ccc(Cl)cc34)CC2)CC1 | 564
COc1cccc2c(NC(=O)c3ccccc3F)cc(C)nc12 | 579
Cc1cccc(C)c1NC(=O)Cn1nc2c(Oc3cccc(F)c3)nccn2c1=O | 825
CCN(c1ccccc1)S(=O)(=O)c1ccc2[nH]c(=O)[nH]c2c1 | 655
COc1ccc(N2CCN(c3ncc(C(=O)O)c(C(C)C)n3)CC2)cc1 | 865
Cc1cc2c(cc1S(=O)(=O)N1CCCC1)N(C(=O)C1CC1)CC2 | 876
O=C(Nc1cnc(N2CCCC2)nc1)c1cccs1 | 667
CCn1cc(C(CNC(=O)Nc2ccc(OC)cc2OC)c2cccnc2)c2ccccc21 (stereo unspecified) | 700
CCC(=O)N1CCc2sc(C(=O)NCc3ccc(Cl)cc3)cc2C1 | 802
O=C(NC1CC1)[C@@H]1C[C@H](Oc2ccccc2)CN1C(=O)CC1CCCC1 | 818
O=C1CCCc2cc(S(=O)(=O)N3CCN(c4cccc(Cl)c4)CC3)ccc2N1 | 928
Cc1cc(-c2nnc(C3CCC3)o2)c(C)n1CC(=O)Nc1ccc(F)c(F)c1 | 915
CCn1c(=O)oc2cc(-c3noc(-c4n[nH]c5c4CCCC5)n3)ccc21 | 914
O=C(Cn1c(=O)nc(N2CCCCC2)c2ccccc21)Nc1ccc2c(c1)OCCO2 | 728

Structure (SMILES) | RP-LC retention time [s]
CC(C)NC(=O)C1CCCN(c2nc3ncn(CC(=O)Nc4ccc(C(C)C)cc4)c(=O)c3s2)C1 (stereo unspecified) | 785
Cc1ccc(CNC(=O)C2CCN(c3cnc4nccnc4c3)CC2)cc1 | 705
Cn1nccc1-c1cccc(-c2noc(-c3ccc(F)c(F)c3)n2)c1 | 1170
CCc1noc(NC(C)=O)c1-c1ccc(OC)c(S(=O)(=O)N2CCCC2)c1 | 710
Cc1ccc(C)c(-c2cc3c(=O)n(Cc4noc(-c5ccccn5)n4)ccn3n2)c1 | 923
O=C(c1cc(N2C(=O)CCS2(=O)=O)ccc1Cl)N1CCN(c2ccccn2)CC1 | 566
Cc1cc(-c2c(C)sc(C)c2S(=O)(=O)N2CCN(c3ccccc3F)CC2)n[nH]1 | 971
Cc1nn(CC(=O)NCCN(C)C2CCCCC2)c(=O)c2c(C)n(-c3ccccc3)nc12 | 653
O=C(NCCn1c(-c2ccccc2)nc2cccnc21)Nc1ccccc1 | 674
Cc1c(C(=O)NC(C)C)cnn1-c1cc(-c2nc(C(C)C)no2)ccn1 | 868
Cc1nc(-c2csc(S(=O)(=O)N3CCCC(C(=O)Nc4cccc(C)c4C)C3)c2)no1 (stereo unspecified) | 951
O=S(=O)(Cc1nc(-c2ccc(Br)cc2)no1)c1ccccc1 | 1040
CCn1c(=O)c2ccn(CC(=O)Nc3cc(C)ccn3)c2n(CC)c1=O | 644
COCCNC(=O)C1CCCCN1S(=O)(=O)c1ccc(F)cc1 (stereo unspecified) | 769
CC(C)NC(=O)c1sc(-n2cccc2)nc1C(C)C | 1060

Second part, the molecule after the results:

RP-LC retention time [s] | Structure (SMILES)
780 | Cc1ccc(Nc2c(-c3ccc(C)cc3)nc3nc(C)cc(C)n23)cc1
561 | COCCNC(=O)C1CCN(c2nccc(C)n2)CC1
793 | CCn1ncc(NC(=O)COc2ccc(F)cc2)c(N2CCCCC2)c1=O
1010 | Cc1ccc(N2C(=O)C3N=NN(c4ccccc4)C3C2=O)cc1C (stereo unspecified)
824 | CCC(c1cccs1)N1C(=O)[C@H]2CN(S(=O)(=O)c3cccnc3)C[C@H]2C1=O (stereo partly specified)
1240 | Cc1cc(S(=O)(=O)N2CCCC2c2nc(-c3ccc(Cl)cc3)no2)ccc1F (stereo unspecified)
978 | COc1cc(OC)c(NC(=O)C(=O)c2ccc[nH]2)cc1Cl
715 | Cc1ccc2nc(N3CCN(C)CC3)c(-c3noc(-c4ccccc4)n3)cc2c1
739 | O=C(NCCc1ccco1)c1ccc2c(c1)NC(=O)C1CCCCN21 (stereo unspecified)
934 | CCOC(=O)COc1cccc2c1CCN(Cc1ccc(Cl)cc1)C2=O
1020 | O=C(CSc1cc(N2CCCCC2)ncn1)Nc1cccc(C(F)(F)F)c1
833 | COc1ccc(/C=C2/CCOC2=O)cc1
808 | O=C(COc1ccccc1)N1CCCC(COc2ccc(C(=O)N3CCCC3)cc2)C1 (stereo unspecified)
1280 | CCCCc1ccc(N2C(=O)C3N=NN(Cc4nc(-c5ccc(Cl)cc5)no4)C3C2=O)cc1 (stereo unspecified)
628 | CSc1ccccc1C(=O)N1CCC(C(=O)NCc2nc(C)no2)CC1
555 | CCn1nccc1C(=O)N1CCC(c2nc3ccncc3n2CC(C)C)C1 (stereo unspecified)
1010 | O=C(NCc1nc(-c2ccc3oc(-c4ccccc4)nc3c2)no1)c1ccccc1
571 | O=C(c1cc(-c2ccncc2)n[nH]1)N1CCN(C(=O)c2cccc3[nH]ccc23)CC1

RP-LC retention time [s] | Structure (SMILES)
653 | CCC1CCCCN1C(=O)c1cnc2nc(C)ccc2c1Nc1cccc(C(=O)OC)c1 (stereo unspecified)
768 | COc1ccc(NC(=O)N2CCC(n3c(C(F)(F)F)nc4cccnc43)CC2)cc1OC
555 | c1ccc(CNc2nc(-c3ccncc3)nc3c2CCC3)nc1
754 | CC(C)(C)c1noc(-c2cccn3c(CC(=O)NC4CCCCC4)nnc23)n1
650 | COCCn1ncc(N2CCC(C(=O)NCc3ccc(C)o3)C2)cc1=O (stereo unspecified)
891 | COc1ccc(NS(=O)(=O)c2ccc3c(c2)C(=O)N(C)c2ncccc2O3)cc1F
713 | O=C(c1cc2occc2c(Nc2ccc(Cl)cc2)n1)N1CCN(c2ccccn2)CC1
717 | O=C(NCC1CCOCC1)c1nccc2ccccc12
930 | O=C(C1=CN(c2ccccc2)c2cc(Cl)ccc2S1(=O)=O)N1CCCCC1
990 | COc1ccc(-c2cc3c(=O)n(Cc4nc(-c5ccccc5OC)oc4C)ccn3n2)cc1OC
895 | CCN1c2cc(C)ccc2-n2cccc2C12CCN(C(=O)NCC(=O)OC)CC2
626 | CC(NC(=O)CCCc1ccccc1)C(=O)N1CCN(c2ccccn2)CC1 (stereo unspecified)
822 | COc1ccc(NC(=O)CCc2c(C)nn(-c3cc(N(C)C)ncn3)c2C)cc1Cl
596 | Cn1cccc1C(=O)C(=O)N1CCN(Cc2ccc3c(c2)OCO3)CC1
631 | CNC(=O)c1nc(C(C)(C)NC(=O)c2cnccn2)nc2c1OCO2
752 | COC(=O)c1ncn2c1C(=O)N(Cc1ccc(F)cc1)C(C)(C(=O)NC1CCCCC1)C2 (stereo unspecified)
670 | Cc1oc(-c2[nH]ncc2C(=O)N(C)C)cc1S(=O)(=O)Nc1ccc(F)cc1
